In US12338256B2, “Aza-tetracyclic oxazepine compounds and uses thereof” (Genentech, Inc., priority 2022, dated 2025):
pIC50: −log10 of the molar value.

Assays:
[1] = system: AsPC-1 (homozygous mutant KRAS G12D human pancreatic cell line); assay: KRAS 3D-Cell Proliferation Assay, AsPC-1 (Example 503); type: cell-based; settings: Homo sapiens, ASPC1, 168 h, AsPC-1 3D culture, 7 days, CellTiter-Glo 3D; read-out: Prolif AsPC-1 3D ATP IC50
Procedure, shortened: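 IC50 values derive from 4-parameter Hill fits of normalized luminescence, where DMSO sets 0% and 1 μM staurosporine 100% inhibition. 3D cultures in RPMI-1640 with 10% fetal bovine serum were exposed to compound for 7 days before CellTiter-Glo 3D lysis.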

[2] = system: PC-9 (KRAS wild type human lung adenocarcinoma cell line); assay: KRAS 3D-Cell Proliferation Assay, PC-9 (Example 503); type: cell-based; settings: 168 h, PC-9 3D culture, 7 days, CellTiter-Glo 3D, read-out: Prolif PC9 3D ATP IC50
Method: Example 503: KRAS 3D-Cell Proliferation Assays. Cellular potencies of compounds are assessed by evaluating inhibition of proliferation in 3D cultures of homozygous mutant KRAS G12D human pancreatic cell lines (AsPC-1 and HPAC) as compared to a KRAS wild type human lung adenocarcinoma cell line (PC-9 and/or H1975). Cells are seeded into 384-well black round-bottom, ultra-low attachment assay plates in 50 uL cell growth medium (RPMI-1640 with 10% fetal bovine serum and 2 mM L-glutamine). After overnight incubation at 37° C. and 5% CO2, compounds solubilized in DMSO are added as dilution series to the wells in a total volume of 150 nL (0.3% DMSO final). The cells are incubated for 7 days at 37° C. and 5% CO2. Cell proliferation is quantitated by addition of 40 uL/well of CellTiter-GloÒ 3D (Promega), and the well contents are mixed 20× at high speed using liquid handling automation workstation (Bravo with 384-well head) and centrifuged at 1500 rpm for 2 minutes to eliminate bubbles. This reagent in combination with mechanical disruption releases the cellular ATP to promote activity in a luciferase-based enzyme/substrate chemiluminescent detection system. After a 30-minute incubation under ambient conditions with shaking and an additional 10 minutes without shaking, the luminescence is read on a plate reader (e.g., EnVision [PerkinElmer]). The results are normalized to percent inhibition based on the following control samples: DMSO (0% inhibition) and 1 μM staurosporine (100% inhibition). The normalized luminescence results are plotted against compound concentration, and the data are fit to a 4-parameter Hill equation to determine the IC50 values.

| SMILES | pIC50 [1] | pIC50 [2] |
| --- | --- | --- |
| C[C@@H]1Oc2nc(-c3cc(N)c(F)cc3C(F)(F)F)c(F)c3nc(OC[C@]45CCN4CC(F)(F)C5)nc(c23)N2C[C@H]3CC[C@H](N3)[C@@H]12 [Compound 71, 5-((5S,5aS,6S,9R)-12-(((R)-3,3-Difluoro-1-azabicyclo[3.2.0]heptan-5-yl)methoxy)-1-fluoro-5-methyl-5a,6,7,8,9,10-hexahydro-5H-4-oxa-3,10a,11,13,14-pentaaza-6,9-methanonaphtho[1,8-ab]heptalen-2-yl)-2-fluoro-4-(trifluoromethyl)aniline] | 6.88 | ≤ 4.70 |
| C[C@@H]1Oc2nc(-c3cc(N)c(F)c(F)c3C(F)(F)F)c(F)c3nc(OC[C@@]45CCCN4C[C@H](F)C5)nc(c23)N2C[C@H]3CC[C@H](N3)[C@@H]12 [Compound 15, 2,3-difluoro-5-((5S,5aS,6S,9R)-1-fluoro-12-(((2R,7aS)-2-fluorotetrahydro-1H-pyrrolizin-7a(5H)-yl)methoxy)-5-methyl-5a,6,7,8,9,10-hexahydro-5H-4-oxa-3,10a,11,13,14-pentaaza-6,9-methanonaphtho[1,8-ab]heptalen-2-yl)-4-(trifluoromethyl)aniline] | 8.80 | 5.54 |
| C[C@@H]1Oc2nc(-c3cccc(N)c3F)c(F)c3nc(OC[C@@]45CCCN4C[C@H](F)C5)nc(c23)N2C[C@H]3CC[C@H](N3)[C@@H]12 [Compound 12, 2-fluoro-3-((5S,5aS,6S,9R)-1-fluoro-12-(((2R,7aS)-2-fluorotetrahydro-1H-pyrrolizin-7a(5H)-yl)methoxy)-5-methyl-5a,6,7,8,9,10-hexahydro-5H-4-oxa-3,10a,11,13,14-pentaaza-6,9-methanonaphtho[1,8-ab]heptalen-2-yl)aniline] | 4.78 | 4.86 |
| Cc1c(F)c(N)cc(-c2nc3c4c(nc(OC[C@@]56CCCN5C[C@H](OCc5ccc(-c7ccccc7C#N)cc5)C6)nc4c2F)N2C[C@H]4CC[C@H](N4)[C@H]2[C@H](C)O3)c1C(F)(F)F [Compound 32, 4′-((((2R,7aS)-7a-((((5S,5aS,6S,9R)-2-(5-amino-4-fluoro-3-methyl-2-(trifluoromethyl)phenyl)-1-fluoro-5-methyl-5a,6,7,8,9,10-hexahydro-5H-4-oxa-3,10a,11,13,14-pentaaza-6,9-methanonaphtho[1,8-ab]heptalen-12-yl)oxy)methyl)hexahydro-1H-pyrrolizin-2-yl)oxy)methyl)-[1,1′-biphenyl]-2-carbonitrile] | 8.47 | 6.09 |
| C[C@@H]1Oc2nc(-c3nc(N)cc4ccccc34)c(F)c3nc(OC[C@@]45CCCN4C[C@H](F)C5)nc(c23)N2C[C@H]3CC[C@H](N3)[C@@H]12 [Compound 41, 1-((5S,5aS,6S,9R)-1-fluoro-12-(((2R,7aS)-2-fluorotetrahydro-1H-pyrrolizin-7a(5H)-yl)methoxy)-5-methyl-5a,6,7,8,9,10-hexahydro-5H-4-oxa-3,10a,11,13,14-pentaaza-6,9-methanonaphtho[1,8-ab]heptalen-2-yl)isoquinolin-3-amine] | 6.01 | ≤ 4.70 |
| C[C@@H]1Oc2nc(-c3cnccc3C(F)(F)F)c(F)c3nc(OC[C@]45CCN4CC(F)(F)C5)nc(c23)N2C[C@H]3CC[C@H](N3)[C@@H]12 [Compound 78, (5S,5aS,6S,9R)-12-(((R)-3,3-Difluoro-1-azabicyclo[3.2.0]heptan-5-yl)methoxy)-1-fluoro-5-methyl-2-(4-(trifluoromethyl)pyridin-3-yl)-5a,6,7,8,9,10-hexahydro-5H-4-oxa-3,10a,11,13,14-pentaaza-6,9-methanonaphtho[1,8-ab]heptalene] | 4.80 | ≤ 4.70 |
| Cn1ncc2ccc(F)c(-c3nc4c5c(nc(OC[C@@]67CCCN6C[C@H](F)C7)nc5c3F)N3C[C@H]5CC[C@H](N5)[C@H]3CO4)c21 [Compound 4, (5aS,6S,9R)-1-fluoro-2-(6-fluoro-1-methyl-1H-indazol-7-yl)-12-(((2R,7aS)-2-fluorotetrahydro-1H-pyrrolizin-7a(5H)-yl)methoxy)-5a,6,7,8,9,10-hexahydro-5H-4-oxa-3,10a,11,13,14-pentaaza-6,9-methanonaphtho[1,8-ab]heptalene] | 5.01 | 4.88 |
